Laboratory results as given in PubChem BioAssay (NCI).
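Step 1: Grow cells in 96-well plates. Step 2: Expose to compound for 48 hours at 5 concentrations. Step 3: Interpolate endpoints linearly; if unreached, use highest concentration. Definition used: TGI = concentration required for complete inhibition of growth.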

Legend:
Experiment in all cases: inhibition of tumour cell growth, NCI panel, 48 h
CAKI-1 renal = tested on: CAKI-1 renal
HOP-62 NSCLC = tested on: HOP-62 NSCLC
OVCAR-3 ovarian = tested on: OVCAR-3 ovarian
LOX IMVI melanoma = tested on: LOX IMVI melanoma
NCI-H522 lung = tested on: NCI-H522 lung
HCC-2998 colon = tested on: HCC-2998 colon
UACC-62 melanoma = tested on: UACC-62 melanoma
HCT-15 colon = tested on: HCT-15 colon
UO-31 renal = tested on: UO-31 renal
EKVX NSCLC = tested on: EKVX NSCLC
SF-295 CNS = tested on: SF-295 CNS
HS 578T breast = tested on: HS 578T breast
786-0 renal = tested on: 786-0 renal
NCI-H226 lung = tested on: NCI-H226 lung
MCF7 breast = tested on: MCF7 breast
COLO 205 colon = tested on: COLO 205 colon
BT-549 breast = tested on: BT-549 breast
M14 melanoma = tested on: M14 melanoma
ACHN renal = tested on: ACHN renal
NCI/ADR-RES ovarian = tested on: NCI/ADR-RES ovarian
IGROV1 ovarian = tested on: IGROV1 ovarian
SNB-19 CNS = tested on: SNB-19 CNS
NCI-H23 lung = tested on: NCI-H23 lung
NCI-H460 lung = tested on: NCI-H460 lung
RXF 393 renal = tested on: RXF 393 renal
MALME-3M melanoma = tested on: MALME-3M melanoma
SF-268 CNS = tested on: SF-268 CNS
MDA-MB-231 breast = tested on: MDA-MB-231 breast
SK-MEL-5 melanoma = tested on: SK-MEL-5 melanoma
SF-539 CNS = tested on: SF-539 CNS
TK-10 renal = tested on: TK-10 renal
DU-145 prostate = tested on: DU-145 prostate
HCT-116 colon = tested on: HCT-116 colon
A549 NSCLC = tested on: A549 NSCLC
MDA-N = tested on: MDA-N
KM12 colon = tested on: KM12 colon
UACC-257 melanoma = tested on: UACC-257 melanoma
OVCAR-5 ovarian = tested on: OVCAR-5 ovarian
SK-OV-3 ovarian = tested on: SK-OV-3 ovarian
PC-3 prostate = tested on: PC-3 prostate

Measured: TGI

NC(N)=NC(P(=O)(O)O)P(=O)(O)O
> 100 µM: CAKI-1 renal | HOP-62 NSCLC | OVCAR-3 ovarian | LOX IMVI melanoma | NCI-H522 lung | HCC-2998 colon | UACC-62 melanoma | HCT-15 colon | UO-31 renal | EKVX NSCLC | SF-295 CNS | HS 578T breast | 786-0 renal | NCI-H226 lung | MCF7 breast | COLO 205 colon | BT-549 breast | M14 melanoma | ACHN renal | NCI/ADR-RES ovarian | IGROV1 ovarian | SNB-19 CNS | NCI-H23 lung | NCI-H460 lung | RXF 393 renal | MALME-3M melanoma | SF-268 CNS | MDA-MB-231 breast | SK-MEL-5 melanoma | SF-539 CNS | TK-10 renal | DU-145 prostate | HCT-116 colon | A549 NSCLC | MDA-N | KM12 colon | UACC-257 melanoma | OVCAR-5 ovarian | SK-OV-3 ovarian | PC-3 prostate
